Experimental data from patent US11707503B2, “Modulators of complement activity” (Ra Pharmaceuticals, Inc., priority 2015, dated 2023).
Starred links: 1 amine or outer side, 2 acyl side, 3 side chain; linkers in the order of their positions; H or OH if unused. Positions of bridges follow the written chain, without caps; N, C: chain ends. Non-standard residues stand in square brackets, D forms with d. Residues, ends and D or L forms follow the SMILES beside them. Ala(1H-tetrazol-5-yl) = N[C@@H](Cc1nnn[nH]1)C(=O)O; Trp(7-aza) = N[C@@H](Cc1c[nH]c2ncccc12)C(=O)O; hPhe(3-Cl) = N[C@@H](CCc1cccc(Cl)c1)C(=O)O; 2Nal = N[C@@H](Cc1ccc2ccccc2c1)C(=O)O; mXylylene = c1cc(C[*:1])cc(C[*:2])c1; Chg = N[C@H](C(=O)O)C1CCCCC1; Tle = CC(C)(C)[C@H](N)C(=O)O; Ac5c = NC1(C(=O)O)CCCC1; Nva = CCC[C@H](N)C(=O)O; Thp = NC1(C(=O)O)CCOCC1

target: C5 (Homo sapiens, UniProt P01031); experiment: Alternative human hemolysis assay using C5 depleted sera and purified human C5; type: cell-based; design: purchased Complement Technology, Tyler, Tex; conditions: 1.5% human C5 depleted sera, 0.5 nM purified human C5
Sequence (P01031 678-1676 limits assumed): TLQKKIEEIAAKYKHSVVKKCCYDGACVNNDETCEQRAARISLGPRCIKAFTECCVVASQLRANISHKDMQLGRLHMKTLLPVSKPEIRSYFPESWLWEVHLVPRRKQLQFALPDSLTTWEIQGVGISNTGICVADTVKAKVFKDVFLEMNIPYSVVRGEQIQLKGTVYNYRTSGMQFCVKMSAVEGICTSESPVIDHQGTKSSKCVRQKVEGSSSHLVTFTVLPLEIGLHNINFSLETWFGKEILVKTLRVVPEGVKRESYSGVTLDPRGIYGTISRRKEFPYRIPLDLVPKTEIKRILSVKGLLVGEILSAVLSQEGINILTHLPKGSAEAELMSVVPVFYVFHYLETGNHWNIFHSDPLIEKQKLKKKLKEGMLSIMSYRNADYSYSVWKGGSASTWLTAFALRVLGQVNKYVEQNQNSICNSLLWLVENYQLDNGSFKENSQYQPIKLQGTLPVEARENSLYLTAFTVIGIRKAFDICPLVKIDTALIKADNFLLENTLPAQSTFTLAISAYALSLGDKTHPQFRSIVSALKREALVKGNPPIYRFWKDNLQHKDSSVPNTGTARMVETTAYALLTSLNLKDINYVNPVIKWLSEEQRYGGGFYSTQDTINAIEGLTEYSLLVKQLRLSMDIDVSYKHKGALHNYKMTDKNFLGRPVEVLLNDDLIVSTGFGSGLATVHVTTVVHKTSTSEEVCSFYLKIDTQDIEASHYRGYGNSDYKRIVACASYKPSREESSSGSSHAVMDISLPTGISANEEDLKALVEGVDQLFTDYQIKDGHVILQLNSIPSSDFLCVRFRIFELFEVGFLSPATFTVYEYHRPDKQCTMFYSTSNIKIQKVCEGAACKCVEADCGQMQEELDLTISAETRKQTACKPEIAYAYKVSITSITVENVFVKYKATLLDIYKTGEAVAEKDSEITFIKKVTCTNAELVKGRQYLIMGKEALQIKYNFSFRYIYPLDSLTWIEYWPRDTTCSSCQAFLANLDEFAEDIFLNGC
Sequence (P01031 19-673 limits assumed): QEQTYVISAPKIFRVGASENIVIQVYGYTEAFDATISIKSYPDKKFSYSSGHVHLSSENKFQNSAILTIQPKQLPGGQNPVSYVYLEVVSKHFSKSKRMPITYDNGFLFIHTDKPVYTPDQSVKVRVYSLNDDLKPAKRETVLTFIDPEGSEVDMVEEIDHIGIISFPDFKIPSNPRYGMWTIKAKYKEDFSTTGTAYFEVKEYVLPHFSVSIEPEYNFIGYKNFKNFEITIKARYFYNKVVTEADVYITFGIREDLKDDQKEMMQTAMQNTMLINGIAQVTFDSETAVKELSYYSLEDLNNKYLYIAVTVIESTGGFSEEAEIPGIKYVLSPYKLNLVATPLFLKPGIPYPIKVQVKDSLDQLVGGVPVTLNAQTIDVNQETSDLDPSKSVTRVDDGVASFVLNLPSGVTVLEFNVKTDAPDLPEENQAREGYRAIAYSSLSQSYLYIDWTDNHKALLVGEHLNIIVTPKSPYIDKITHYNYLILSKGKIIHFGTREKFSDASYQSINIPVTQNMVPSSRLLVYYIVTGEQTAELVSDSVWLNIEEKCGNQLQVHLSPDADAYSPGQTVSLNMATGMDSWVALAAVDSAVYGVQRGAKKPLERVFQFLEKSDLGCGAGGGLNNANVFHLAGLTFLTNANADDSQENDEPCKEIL

SMILES	IC50
CCC[C@H](NC(=O)[C@@H](NC(=O)[C@@H]1CCCN1C(=O)[C@H](Cc1c[nH]c2ccccc12)NC(=O)[C@H](CCC(=O)O)NC(=O)[C@H](Cc1c[nH]c2ncccc12)NC(=O)[C@H](Cc1ccc(O)cc1)NC(=O)[C@@H](NC(=O)[C@H](CC(=O)O)NC(=O)[C@@H]1CSCc2cccc(c2)CSC[C@H](NC(C)=O)C(=O)N[C@@H](C(C)C)C(=O)N[C@@H](CCC(=O)O)C(=O)N[C@@H](CCCNC(=N)N)C(=O)N[C@@H](Cc2ccccc2)C(=O)N1)C(C)(C)C)C1CCCCC1)C(=O)O [Compound R3177, [mXylyl(1,6)]Ac-C-V-E-R-F-C-D-Tbg-Y-azaTrp-E-W-P-Chg-Nvl] (Ac-CVERFCD[Tle]Y[Trp(7-aza)]EWP[Chg][Nva]-OH; linker 1-6 via mXylylene)	12 nM

same assay, conditions: […] human C5 depleted sera, 0.5 nM purified human C5

SMILES	IC50
CCCCCCCCCCCCCCCC(=O)NCCCC[C@H](NC(=O)C(C)(C)NC(=O)[C@@H]1CCCN1C(=O)[C@H](Cc1ccc(O)cc1)NC(=O)[C@H](CCC(=O)O)NC(=O)[C@H](Cc1c[nH]c2ncccc12)NC(=O)[C@H](Cc1ccc(O)cc1)NC(=O)[C@@H](NC(=O)[C@H](CC(=O)O)N(C)C(=O)[C@@H]1CC(=O)NCCCC[C@H](NC(C)=O)C(=O)N[C@@H](C(C)C)C(=O)N[C@@H](CCC(=O)O)C(=O)N[C@@H](CCCNC(=N)N)C(=O)N[C@@H](Cc2ccccc2)C(=O)N1)C(C)(C)C)C(=O)O [Compound R3200, [cyclo(1,6)]Ac-K-V-E-R-F-D-(N—Me)D-Tbg-Y-azaTrp-E-Y-P-Aib-(Lys-C16)]	88.5 nM
CCC[C@H](NC(=O)[C@@H](NC(=O)[C@@H]1CCCN1C(=O)[C@H](Cc1ccc(O)cc1)NC(=O)[C@H](CCC(=O)O)NC(=O)[C@H](Cc1c[nH]c2ncccc12)NC(=O)[C@H](Cc1ccc(O)cc1)NC(=O)[C@@H](NC(=O)C1(NC(=O)[C@@H]2CSCc3cccc(c3)CSC[C@H](NC(C)=O)C(=O)N[C@@H](C(C)C)C(=O)N[C@@H](CCC(=O)O)C(=O)N[C@@H](CCCNC(=N)N)C(=O)N[C@@H](Cc3ccccc3)C(=O)N2)CCCC1)C(C)(C)C)C1CCCCC1)C(=O)O [Compound R3185, [mXylyl(1,6)]Ac-C-V-E-R-F-C-Cle-Tbg-Y-azaTrp-E-Y-P-Chg-Nvl] (Ac-CVERFC[Ac5c][Tle]Y[Trp(7-aza)]EYP[Chg][Nva]-OH; linker 1-6 via mXylylene; C-terminus assumed)	12.5 nM
CCC[C@H](NC(=O)[C@@H](NC(=O)[C@@H]1CCCN1C(=O)[C@H](Cc1ccc(O)cc1)NC(=O)[C@H](CCC(=O)O)NC(=O)[C@H](Cc1cccc(CN)c1)NC(=O)[C@H](Cc1ccc(O)cc1)NC(=O)[C@@H](NC(=O)[C@H](CC(=O)O)NC(=O)[C@@H]1CSCc2cccc(c2)CSC[C@H](NC(C)=O)C(=O)N[C@@H](C(C)C)C(=O)N[C@@H](CCC(=O)O)C(=O)N[C@@H](CCCNC(=N)N)C(=O)N[C@@H](Cc2ccccc2)C(=O)N1)C(C)(C)C)C1CCCCC1)C(=O)O [Compound R3181, [mXylyl(1,6)]Ac-C-V-E-R-F-C-D-Tbg-Y-(3-aminomethyl)Phe-E-Y-P-Chg-Nvl]	1500 nM
CCCCCCCCCCCCCCCC(=O)NCCCC[C@H](NC(=O)[C@@H](NC(=O)[C@@H]1CCCN1C(=O)[C@H](Cc1ccc(O)cc1)NC(=O)[C@H](CCC(=O)O)NC(=O)[C@H](Cc1c[nH]c2ncccc12)NC(=O)[C@H](Cc1ccc(O)cc1)NC(=O)[C@@H](NC(=O)[C@H](CC(=O)O)N(C)C(=O)[C@@H]1CSSCCC(=O)N[C@H](C)C(=O)N[C@@H](CCC(=O)O)C(=O)N[C@@H](CCCNC(=N)N)C(=O)N[C@@H](Cc2ccccc2)C(=O)N1)C(C)(C)C)C1CCCCC1)C(=O)O [Compound R3199, [cyclo(1,6)](desamino)C-(D-Ala)-E-R-F-C-(N—Me)D-Tbg-Y-azaTrp-E-Y-P-Chg-(Lys-C16)]	112 nM
CCC[C@H](NC(=O)[C@@H](NC(=O)[C@@H]1CCCN1C(=O)[C@H](Cc1ccc2ccccc2c1)NC(=O)[C@H](CCC(=O)O)NC(=O)[C@H](Cc1c[nH]c2ncccc12)NC(=O)[C@H](Cc1ccc(O)cc1)NC(=O)[C@@H](NC(=O)[C@H](CC(=O)O)NC(=O)[C@@H]1CSCc2cccc(c2)CSC[C@H](NC(C)=O)C(=O)N[C@@H](C(C)C)C(=O)N[C@@H](CCC(=O)O)C(=O)N[C@@H](CCCNC(=N)N)C(=O)N[C@@H](Cc2ccccc2)C(=O)N1)C(C)(C)C)C1CCCCC1)C(=O)O [Compound R3180, [mXylyl(1,6)]Ac-C-V-E-R-F-C-D-Tbg-Y-azaTrp-E-2Nal-P-Chg-Nvl] (Ac-CVERFCD[Tle]Y[Trp(7-aza)]E[2Nal]P[Chg][Nva]-OH; linker 1-6 via mXylylene; C-terminus assumed)	29 nM
CCCCCCCCCCCCCCCC(=O)NCCCC[C@H](NC(=O)[C@@H](NC(=O)[C@@H]1CCCN1C(=O)[C@H](Cc1ccc(O)cc1)NC(=O)[C@H](CCC(=O)O)NC(=O)[C@H](Cc1c[nH]c2ncccc12)NC(=O)[C@H](Cc1ccc(O)cc1)NC(=O)[C@@H](NC(=O)[C@H](CC(=O)O)NC(=O)[C@@H]1CSCc2cccc(c2)CSC[C@H](NC(C)=O)C(=O)N[C@@H](C)C(=O)N[C@@H](CCC(=O)O)C(=O)N[C@@H](CCCNC(=N)N)C(=O)N[C@@H](Cc2ccccc2)C(=O)N1)C(C)(C)C)c1ccccc1)C(=O)O [Compound R3189, [mXylyl(1,6)]Ac-C-A-E-R-F-C-D-Tbg-Y-azaTrp-E-Y-P-Phg-(Lys-C16)]	81.5 nM
CC(=O)N[C@H]1CCCCNC(=O)C[C@@H](C(=O)N(C)[C@@H](CC(=O)O)C(=O)N[C@H](C(=O)N[C@@H](Cc2ccc(O)cc2)C(=O)N[C@@H](Cc2c[nH]c3ccccc23)C(=O)N[C@@H](CCC(=O)O)C(=O)N[C@@H](Cc2ccc(O)cc2)C(=O)N2CCC[C@H]2C(=O)N[C@H](C(=O)N[C@@H](CCCCNC(CC(C)C)=C2C(=O)CC(C)(C)CC2=O)C(=O)O)C2CCCCC2)C(C)(C)C)NC(=O)[C@H](Cc2ccccc2)NC(=O)[C@H](CCCNC(=N)N)NC(=O)[C@H](CCC(=O)O)NC(=O)[C@H](C(C)C)NC1=O [Compound R3197, [cyclo(1,6)]Ac-K-V-E-R-F-D-(N—Me)D-Tbg-Y-W-E-Y-P-Chg-K14]	4 nM
CCC[C@H](NC(=O)[C@@H](NC(=O)[C@@H]1CCCN1C(=O)[C@H](CCc1cccc(Cl)c1)NC(=O)[C@H](CCC(=O)O)NC(=O)[C@H](Cc1c[nH]c2ncccc12)NC(=O)[C@H](Cc1ccc(O)cc1)NC(=O)[C@@H](NC(=O)[C@H](CC(=O)O)NC(=O)[C@@H]1CSCc2cccc(c2)CSC[C@H](NC(C)=O)C(=O)N[C@@H](C(C)C)C(=O)N[C@@H](CCC(=O)O)C(=O)N[C@@H](CCCNC(=N)N)C(=O)N[C@@H](Cc2ccccc2)C(=O)N1)C(C)(C)C)C1CCCCC1)C(=O)O [Compound R3179, [mXylyl(1,6)]Ac-C-V-E-R-F-C-D-Tbg-Y-azaTrp-E-(m-Cl-homo)Phe-P-Chg-Nvl] (Ac-CVERFCD[Tle]Y[Trp(7-aza)]E[hPhe(3-Cl)]P[Chg][Nva]-OH; linker 1-6 via mXylylene; C-terminus assumed)	83 nM
CCCCCCCCCCCCCCCC(=O)NCCCC[C@H](NC(=O)[C@@H](NC(=O)[C@@H]1CCCN1C(=O)[C@H](Cc1ccc(O)cc1)NC(=O)[C@H](CCC(=O)O)NC(=O)[C@H](Cc1c[nH]c2ccccc12)NC(=O)[C@H](Cc1ccc(O)cc1)NC(=O)[C@@H](NC(=O)[C@H](CC(=O)O)N(C)C(=O)[C@@H]1CC(=O)NCCCC[C@H](NC(C)=O)C(=O)N[C@@H](C(C)C)C(=O)N[C@@H](CCC(=O)O)C(=O)N[C@@H](CCCNC(=N)N)C(=O)N[C@@H](Cc2ccccc2)C(=O)N1)C(C)(C)C)C1CCCCC1)C(=O)O [Compound R3195, [cyclo(1,6)]Ac-K-V-E-R-F-D-(N—Me)D-Tbg-Y-W-E-Y-P-Chg-(Lys-C16)]	62.5 nM
CCC[C@H](NC(=O)[C@@H](NC(=O)[C@@H]1CCCN1C(=O)[C@H](Cc1ccc(O)cc1)NC(=O)[C@H](CCC(=O)O)NC(=O)[C@H](Cc1c[nH]c2ncccc12)NC(=O)[C@H](Cc1ccc(O)cc1)NC(=O)[C@@H](NC(=O)[C@H](Cc1nnn[nH]1)NC(=O)[C@@H]1CC(=O)NCCCC[C@H](NC(C)=O)C(=O)N[C@@H](C(C)C)C(=O)N[C@@H](CCC(=O)O)C(=O)N[C@@H](CCCNC(=N)N)C(=O)N[C@@H](Cc2ccccc2)C(=O)N1)C(C)(C)C)C1CCCCC1)C(=O)O [Compound R3174, [cyclo(1,6)]Ac-K-V-E-R-F-D-Asp(T)-Tbg-Y-azaTrp-E-Y-P-Chg-Nvl] (Ac-KVERFD[Ala(1H-tetrazol-5-yl)][Tle]Y[Trp(7-aza)]EYP[Chg][Nva]-OH; lactam 1-6; C-terminus assumed)	2.3 nM
CCC[C@H](NC(=O)[C@@H](NC(=O)[C@@H]1CCCN1C(=O)[C@H](Cc1ccc(O)cc1)NC(=O)[C@H](CCC(=O)O)NC(=O)[C@H](Cc1c[nH]c2ncccc12)NC(=O)[C@H](Cc1ccc(O)cc1)NC(=O)[C@@H](NC(=O)C1(NC(=O)[C@@H]2CSCc3cccc(c3)CSC[C@H](NC(C)=O)C(=O)N[C@@H](C(C)C)C(=O)N[C@@H](CCC(=O)O)C(=O)N[C@@H](CCCNC(=N)N)C(=O)N[C@@H](Cc3ccccc3)C(=O)N2)CCOCC1)C(C)(C)C)C1CCCCC1)C(=O)O [Compound R3186, [mXylyl(1,6)]Ac-C-V-E-R-F-C-(Ac-Pyran)-Tbg-Y-azaTrp-E-Y-P-Chg-Nvl] (Ac-CVERFC[Thp][Tle]Y[Trp(7-aza)]EYP[Chg][Nva]-OH; linker 1-6 via mXylylene; C-terminus assumed)	18 nM
CC(=O)N[C@H]1CCCCNC(=O)C[C@@H](C(=O)N(C)[C@@H](CC(=O)O)C(=O)N[C@H](C(=O)N[C@@H](Cc2ccc(O)cc2)C(=O)N[C@@H](Cc2c[nH]c3ccccc23)C(=O)N[C@@H](CCC(=O)O)C(=O)N[C@@H](Cc2ccc(O)cc2)C(=O)N2CCC[C@H]2C(=O)N[C@H](C(=O)N[C@@H](CCCCN)C(=O)O)C2CCCCC2)C(C)(C)C)NC(=O)[C@H](Cc2ccccc2)NC(=O)[C@H](CCCNC(=N)N)NC(=O)[C@H](CCC(=O)O)NC(=O)[C@H](C(C)C)NC1=O [Compound R3196, [cyclo(1,6)]Ac-K-V-E-R-F-D-(N—Me)D-Tbg-Y-W-E-Y-P-Chg-K]	3 nM
